The melting point is the temperature, or range, at which the solid turns liquid. `COCCN(C)c1ccc(C)c2c(=O)c(-c3ccc(OC)cc3)c[nH]c12.Cl` came in with a melting point of 90 to 93 °C.

`CCCOc1cccc2c(=O)c(-c3cccc4ccccc34)c[nH]c12` gave a melting point of 255 to 256 °C.

In turn, `CCCOc1cccc2c(=O)c(-c3ccc(OC)c(OC)c3)c[nH]c12` [Example 14, 3-(3,4-Dimethoxyphenyl)-8-propoxy-1H-quinolin-4-one] gave a melting point of 210 to 211 °C.

`CCCOc1cccc2c(=O)c(-c3ccncc3)c[nH]c12` [Example 15, 8-Propoxy-3-pylidine-4-yl-1H-quinolin-4-one] came in with a melting point of 259 to 260 °C.

`CCCOc1cccc2c(=O)c(-c3ccc(OC)cc3OC)c[nH]c12` [Example 16, 3-(2,4-Dimethoxyphenyl)-8-propoxy-1H-quinolin-4-one] showed a melting point of 231 to 232 °C.

For `CCCOc1cccc2c(=O)c(-c3ccc(OC)cc3C)c[nH]c12` [Example 19, 3-(4-Methoxy-2-methylphenyl)-8-propoxy-1H-quinolin-4-one], the melting point fell in the range of 214 to 215 °C.

In turn, `CCCOc1ccc(-c2ccccc2)c2c(=O)c(-c3ccc(OC)cc3)c[nH]c12` [Example 22, 3-(4-Methoxyphenyl)-5-phenyl-8-propoxy-1H-quinolin-4-one] showed a melting point of 186 to 187 °C.

In the case of `CCOc1ccc(OCC)c2c(=O)c(-c3ccc(OC)cc3)c[nH]c12` [Example 25, 5,8-Diethoxy-3-(4-methoxyphenyl)-1H-quinolin-4-one], the melting point was in the range of 182 to 183 °C.

Take `CCCOc1cccc2c(=O)c(-c3ccc(Cl)cc3Cl)c[nH]c12` [Example 27, 3-(2,4-Dichlorophenyl)-8-propoxy-1H-quinolin-4-one]: the melting point came out at 189 °C.

In the case of `CCCOc1cccc2c(=O)c(-c3c(Cl)cccc3Cl)c[nH]c12` [Example 28, 3-(2,6-Dichlorophenyl)-8-propoxy-1H-quinolin-4-one], the melting point was determined as 193 °C.

On to `CCCOc1cccc2c(=O)c(-c3ccc(F)cc3Cl)c[nH]c12` [Example 29, 3-(2-Chloro-4-fluorophenyl)-8-propoxy-1H-quinolin-4-one], for which the melting point is 230 °C.

As for `CCCOc1cccc2c(=O)c(-c3c(F)cccc3Cl)c[nH]c12` [Example 30, 3-(2-Chloro-6-fluorophenyl)-8-propoxy-1H-quinolin-4-one], the melting point was 250 °C.

In the case of `CCCOc1cccc2c(=O)c(-c3cc(OC)ccc3OC)c[nH]c12` [Example 31, 3-(2,5-Dimethoxyphenyl)-8-propoxy-1H-quinolin-4-one], the melting point stood at 175 °C.

Regarding `CCCOc1cccc2c(=O)c(-c3c(F)c(F)c(F)c(F)c3F)c[nH]c12` [Example 33, 3-Pentafluorophenyl-8-propoxy-1H-quinolin-4-one], the melting point amounted to 160 °C.

As to `CCOc1cc(NC(=O)c2ccccc2)c(OCC)c2c(=O)c(-c3ccc(OC)cc3)c[nH]c12` [Example 35, N-[5,8-Diethoxy-3-(4-methoxyphenyl)-4-oxo-1,4-dihydroquinolin-6-yl]-benzamide], the melting point lay in the range of 120 to 121 °C.

Regarding `CCCOc1cc(C)cc2c(=O)c(-c3ccc(OC)cc3)c[nH]c12` [Example 36, 3-(4-Methoxyphenyl)-6-methyl-8-propoxy-1H-quinolin-4-one], the melting point lay within 161 to 162 °C.

Take `CCCOc1cccc2c(=O)c(-c3ccccc3OC)c[nH]c12` [Example 39, 3-(2-Methoxyphenyl)-8-propoxy-1H-quinolin-4-one]: the melting point was in the range of 218 to 220 °C.

Take `CCCOc1ccc(OC)c2c(=O)c(-c3ccccc3OC)c[nH]c12` [Example 40, 5-Methoxy-3-(2-methoxyphenyl)-8-propoxy-1H-quinolin-4-one]: the melting point was in the range of 239 to 241 °C.

For `CCCOc1cccc2c(=O)c(-c3cccc(OC)c3OC)c[nH]c12` [Example 41, 3-(2,3-Dimethoxyphenyl)-8-propoxy-1H-quinolin-4-one], the melting point lay within 253 to 255 °C.

As for `CCCOc1ccc(OC)c2c(=O)c(-c3cccc(OC)c3OC)c[nH]c12` [Example 42, 3-(2,3-Dimethoxyphenyl)-5-methoxy-8-propoxy-1H-quinolin-4-one], the melting point was in the range of 145 to 148 °C.

`CCCOc1ccc(OC)c2c(=O)c(-c3cc(OC)ccc3OC)c[nH]c12` [Example 43, 3-(2,5-Dimethoxyphenyl)-5-methoxy-8-propoxy-1H-quinolin-4-one] returned a melting point of 179 to 180 °C.

For the molecule `CCOc1ccc(OC)c2c(=O)c(-c3ccc(OC)cc3)c[nH]c12` [Example 45, 8-Ethoxy-5-methoxy-3-(4-methoxyphenyl)-1H-quinolin-4-one], the melting point is 117 to 119 °C.

In the case of `COc1ccc(-c2c[nH]c3c(OC(C)C)ccc(OC)c3c2=O)cc1` [Example 46, 8-Isopropoxy-5-methoxy-3-(4-methoxyphenyl)-1H-quinolin-4-one], the melting point was in the range of 213 to 214 °C.

In turn, `COc1ccc(-c2c[nH]c3c(OCC(C)C)ccc(OC)c3c2=O)cc1` [Example 47, 8-Isobutoxy-5-methoxy-3-(4-methoxyphenyl)-1H-quinolin-4-one] yielded a melting point of 242 to 244 °C.

Consider `CCCOc1c(F)ccc2c(=O)c(-c3ccc(OC)cc3)c[nH]c12` [Example 48, 7-Fluoro-3-(4-methoxyphenyl)-8-propoxy-1H-quinolin-4-one], for which the melting point is 160 to 161 °C.

In turn, `CCCOc1ccc(CC)c2c(=O)c(-c3ccc(OC)cc3)c[nH]c12` [Example 49, 5-Ethyl-3-(4-methoxyphenyl)-8-propoxy-1H-quinolin-4-one] showed a melting point of 169 to 170 °C.

Consider `CCCOc1ccc(C)c2c(=O)c(-c3ccccc3C)c[nH]c12` [Example 50, 5-Methyl-8-propoxy-3-o-tolyl-1H-quinolin-4-one], for which the melting point fell in the range of 201 to 202 °C.

For the molecule `CCCOc1ccc(C)c2c(=O)c(-c3ccccc3OC)c[nH]c12` [Example 52, 3-(2-Methoxyphenyl)-5-methyl-8-propoxy-1H-quinolin-4-one], the melting point was 221 to 223 °C.

With `CCCOc1ccc(C)c2c(=O)c(-c3cccc(OC)c3OC)c[nH]c12` [Example 53, 3-(2,3-Dimethoxyphenyl)-5-methyl-8-propoxy-1H-quinolin-4-one], the melting point lay in the range of 170 to 171 °C.

`CCCOc1cccc2c(=O)c(-c3ccccc3Br)c[nH]c12` [Example 54, 3-(2-Bromophenyl)-8-propoxy-1H-quinolin-4-one] came in with a melting point of 200 to 203 °C.

The molecule `CCCOc1cccc2c(=O)c(-c3cccc(Br)c3)c[nH]c12` [Example 55, 3-(3-Bromophenyl)-8-propoxy-1H-quinolin-4-one] displayed a melting point of 107 to 108 °C.

As for `CCCOc1cccc2c(=O)c(-c3cccc(-c4ccc(OC)cc4OC)c3)c[nH]c12` [Example 56, 3-(2′,4′-Dimethoxybiphenyl-3-yl)-8-propoxy-1H-quinolin-4-one], the melting point fell in the range of 81 to 84 °C.

`CCCOc1ccc(C)c2c(=O)c(-c3ccc(Cl)cc3Cl)c[nH]c12` [Example 57, 3-(2,4-Dichlorophenyl)-5-methyl-8-propoxy-1H-quinolin-4-one] had a melting point of 103 to 106 °C.

As for `CCCOc1cccc2c(=O)c(-c3cccc(-c4ccc(C)cc4)c3)c[nH]c12` [Example 59, 3-(4′-Methylbiphenyl-3-yl)-8-propoxy-1H-quinolin-4-one], the melting point lay in the range of 189 to 193 °C.

Molecule `CCCOc1ccc(C)c2c(=O)c(-c3cccs3)c[nH]c12` [Example 61, 5-Methyl-8-propoxy-3-thiophen-2-yl-1H-quinolin-4-one] had a melting point of 104 to 105 °C.

`CCCOc1ccc(C)c2c(=O)c(-c3cn(C)c4ccccc34)c[nH]c12` [Example 62, 5-Methyl-3-(1-methyl-1H-indol-3-yl)-8-propoxy-1H-quinolin-4-one]: the melting point was 106 to 109 °C.

`CCCOc1ccc(C)c2c(=O)c(-c3sc4ccccc4c3C)c[nH]c12` [Example 66, 5-Methyl-3-(3-methylbenzo[b]thiophen-2-yl)-8-propoxy-1H-quinolin-4-one] gave a melting point of 90 to 92 °C.

Take `COc1ccc(-c2c[nH]c3c(OCC4CC4)ccc(C)c3c2=O)cc1` [Example 69, 8-Cyclopropylmethoxy-3-(4-methoxyphenyl)-5-methyl-1H-quinolin-4-one]: the melting point lay within 182 to 183 °C.

The molecule `CCc1nccn1-c1ccc(C)c2c(=O)c(-c3ccc(OC)cc3)c[nH]c12` [Example 71, 8-(2-Ethylimidazol-1-yl)-3-(4-methoxyphenyl)-5-methyl-1H-quinolin-4-one] registered a melting point of 258 to 260 °C.

Molecule `CCCN(C)c1ccc(C)c2c(=O)c(-c3ccc(OC)cc3)c[nH]c12` [Example 72, 3-(4-Methoxyphenyl)-5-methyl-8-(methyl-propyl-amino)-1H-quinolin-4-one] yielded a melting point of 159 to 161 °C.

Take `COc1ccc(-c2c[nH]c3c(N4CCOCC4)ccc(C)c3c2=O)cc1` [Example 73, 3-(4-Methoxyphenyl)-5-methyl-8-morpholin-4-yl-1H-quinolin-4-one]: the melting point is 260 to 263 °C.

The molecule `CCCOc1ccc(C)c2c(=O)c(-c3ccc(O)cc3)c[nH]c12` [Example 74, 3-(4-Hydroxyphenyl)-5-methyl-8-propoxy-1H-quinolin-4-one] gave a melting point of 265 to 267 °C.

For the molecule `Cc1ccc(O)c2[nH]cc(-c3ccc(O)cc3)c(=O)c12` [Example 75, 8-Hydroxy-3-(4-hydroxyphenyl)-5-methyl-1H-quinolin-4-one], the melting point is 270 to 275 °C (dec.).

Molecule `CCCCc1ccc(C)c2c(=O)c(-c3ccc(OC)cc3)c[nH]c12` [Example 76, 8-Butyl-3-(4-methoxyphenyl)-5-methyl-1H-quinolin-4-one] gave a melting point of 186 to 188 °C.

The molecule `COc1ccc(-c2c[nH]c3c(N4CCN(C)CC4)ccc(C)c3c2=O)cc1` [Example 77, 3-(4-Methoxyphenyl)-5-methyl-8-(4-methylpiperazin-1-yl)-1H-quinolin-4-one] yielded a melting point of 214 to 215 °C.

On to `CCCOc1ccc(C)c2c(=O)c(-c3ccc(OC)cc3OCC)c[nH]c12` [Example 78, 3-(2-Ethoxy-4-methoxyphenyl)-5-methyl-8-propoxy-1H-quinolin-4-one], for which the melting point fell in the range of 191 to 192 °C.

Source of the values: US20130217678A1, “PHARMACEUTICAL AGENT COMPRISING QUINOLONE COMPOUND” (OTSUKA PHARMACEUTICAL CO., LTD., priority 2008, published 2013).
